Laboratory results reported in paper PMC7179119, “A New Positron Emission Tomography Probe for Orexin Receptors Neuroimaging” (Molecules, 2020).
Where two headings read alike, the source gives them in different places.

Tests used:
Assay in all cases: PDSP off-target radioligand binding assay
Alpha2B = target: T1, Alpha2B (Homo sapiens, UniProt P18089)
T1 construct: NIMH PDSP
T1 sequence (P18089 1-450): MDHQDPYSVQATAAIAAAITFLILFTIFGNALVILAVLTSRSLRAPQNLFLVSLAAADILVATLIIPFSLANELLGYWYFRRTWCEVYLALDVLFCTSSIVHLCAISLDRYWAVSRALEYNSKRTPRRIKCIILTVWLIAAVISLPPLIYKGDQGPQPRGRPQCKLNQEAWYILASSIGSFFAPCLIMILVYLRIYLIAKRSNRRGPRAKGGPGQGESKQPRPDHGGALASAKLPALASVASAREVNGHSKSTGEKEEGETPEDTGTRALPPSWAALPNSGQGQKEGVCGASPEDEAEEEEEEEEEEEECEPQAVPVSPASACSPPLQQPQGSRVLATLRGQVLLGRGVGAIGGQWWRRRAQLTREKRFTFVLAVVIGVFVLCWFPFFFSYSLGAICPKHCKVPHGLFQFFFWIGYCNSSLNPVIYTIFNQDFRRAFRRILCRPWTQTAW
Experimental: (§1) Table S1. Off binding data of CW24.
(§2) The off-target binding assays were performed at PDSP with their standard protocol (https://pdspdb.unc.edu/pdspWeb/content/UNC-CH%20Protocol%20Book.pdf). In radioligand binding assays, CW24 was tested at a single concentration (10 µM) and in quadruplicate in 96-well plates. The binding assays were carried out in a final of volume of 125 µl per well in appropriate binding buffers. The hot ligand concentration is usually at a concentration close to the Kd (unless otherwise indicated). Total binding and nonspecific binding are determined in the absence and presence of 10 µM of the appropriate reference compound, respectively. In brief, plates are usually incubated at room temperature and in the dark for 90 mins. Reactions are stopped by vacuum filtration onto 0.3% polyethyleneimine (PEI) soaked 96-well filter mats using a 96-well Filtermate harvester, followed by three washes with cold wash buffers (for details, see Tables 2 to 24). Scintillation cocktail is then melted onto the microwave-dried filters on a hot plate and radioactivity is counted in a Microbeta counter.
(§3) Receptor % Inhibition 1 % Inhibition 2 % Inhibition 3 % Inhibition 4 Mean±SD %

Alpha1D = target: T2, Alpha1D (Homo sapiens, UniProt P25100)
T2 construct: NIMH PDSP
T2 sequence (P25100 1-572): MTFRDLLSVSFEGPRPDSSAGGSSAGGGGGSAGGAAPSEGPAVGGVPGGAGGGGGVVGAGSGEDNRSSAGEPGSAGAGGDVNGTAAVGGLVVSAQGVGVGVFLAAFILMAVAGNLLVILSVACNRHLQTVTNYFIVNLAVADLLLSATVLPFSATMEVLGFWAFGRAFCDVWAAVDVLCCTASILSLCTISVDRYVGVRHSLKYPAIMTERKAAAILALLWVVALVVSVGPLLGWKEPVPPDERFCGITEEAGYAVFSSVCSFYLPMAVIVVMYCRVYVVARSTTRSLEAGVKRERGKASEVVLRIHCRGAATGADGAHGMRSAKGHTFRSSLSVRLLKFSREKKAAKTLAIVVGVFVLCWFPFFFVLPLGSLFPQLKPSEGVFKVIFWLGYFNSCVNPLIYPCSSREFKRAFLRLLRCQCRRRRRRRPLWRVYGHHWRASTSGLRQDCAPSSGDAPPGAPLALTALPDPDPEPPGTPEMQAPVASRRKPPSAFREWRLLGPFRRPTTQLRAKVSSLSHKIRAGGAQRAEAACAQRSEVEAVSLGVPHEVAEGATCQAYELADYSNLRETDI
Experimental: as §1, §2, §3

M1 = target: T3, M1 (Homo sapiens, UniProt P11229)
T3 sequence (P11229 1-460): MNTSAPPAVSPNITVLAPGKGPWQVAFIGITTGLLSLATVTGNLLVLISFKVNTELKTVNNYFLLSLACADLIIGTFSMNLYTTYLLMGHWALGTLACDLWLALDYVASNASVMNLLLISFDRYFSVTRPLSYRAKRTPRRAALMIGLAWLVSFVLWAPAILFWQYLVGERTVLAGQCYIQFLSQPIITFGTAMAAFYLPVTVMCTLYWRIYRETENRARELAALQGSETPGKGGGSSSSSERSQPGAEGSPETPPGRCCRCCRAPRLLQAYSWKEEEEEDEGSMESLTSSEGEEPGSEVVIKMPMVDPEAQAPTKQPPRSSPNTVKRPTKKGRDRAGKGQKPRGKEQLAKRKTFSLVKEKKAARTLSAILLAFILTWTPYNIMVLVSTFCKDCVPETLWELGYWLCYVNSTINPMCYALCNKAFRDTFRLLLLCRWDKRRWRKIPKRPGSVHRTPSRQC
Experimental: as §1, §2, §3

MOR = MOR (Homo sapiens, UniProt P35372)
Experimental: as §1, §2, §3

M4 = target: T4, M4 (Homo sapiens, UniProt P08173)
T4 sequence (P08173 1-479): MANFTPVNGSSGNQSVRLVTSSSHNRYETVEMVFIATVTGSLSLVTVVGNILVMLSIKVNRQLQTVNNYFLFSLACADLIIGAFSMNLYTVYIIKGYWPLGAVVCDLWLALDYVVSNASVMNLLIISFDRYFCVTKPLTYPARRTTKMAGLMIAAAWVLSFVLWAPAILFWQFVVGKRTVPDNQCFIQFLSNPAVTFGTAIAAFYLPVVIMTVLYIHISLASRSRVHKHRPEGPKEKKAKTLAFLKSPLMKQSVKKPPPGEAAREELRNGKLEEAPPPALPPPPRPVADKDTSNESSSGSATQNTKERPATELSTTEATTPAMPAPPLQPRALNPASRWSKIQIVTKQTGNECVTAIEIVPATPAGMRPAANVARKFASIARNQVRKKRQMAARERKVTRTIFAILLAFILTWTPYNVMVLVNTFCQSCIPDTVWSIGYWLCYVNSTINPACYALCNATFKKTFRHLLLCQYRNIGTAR
Experimental: as §1, §2, §3

Sigma 2 = conditions: 10 µM
Experimental: as §1, §2, §3

[1] = quadruplicate, read-out: Mean±SD % inhibition
[2] = replicate 1, read-out: % Inhibition 1
[3] = replicate 2, read-out: % Inhibition 2
[4] = replicate 3, read-out: % Inhibition 3
[5] = replicate 4, read-out: % Inhibition 4

MOR, sequence (P35372 whole entry): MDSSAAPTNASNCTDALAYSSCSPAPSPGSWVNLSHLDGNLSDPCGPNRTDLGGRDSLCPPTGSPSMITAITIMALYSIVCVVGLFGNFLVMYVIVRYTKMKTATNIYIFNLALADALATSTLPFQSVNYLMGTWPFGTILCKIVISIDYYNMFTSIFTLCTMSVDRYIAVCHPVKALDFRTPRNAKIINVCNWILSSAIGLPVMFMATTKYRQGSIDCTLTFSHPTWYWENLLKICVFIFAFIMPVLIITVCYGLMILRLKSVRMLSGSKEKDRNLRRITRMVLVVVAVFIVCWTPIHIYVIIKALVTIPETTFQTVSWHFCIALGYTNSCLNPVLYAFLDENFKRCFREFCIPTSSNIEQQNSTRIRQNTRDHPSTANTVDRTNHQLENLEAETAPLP

COc1ccnc(N2CCC3(CCCN(Cc4cn(C)c5ccccc45)C3=O)CC2)n1 [CW24]
inhibition at 10 µM (Alpha2B; [1]): -9.5 ± 13.4% | inhibition at 10 µM (Alpha2B; [2]): -8.15% | inhibition at 10 µM (Alpha2B; [3]): -23.6% | inhibition at 10 µM (Alpha2B; [4]): -14.5% | inhibition at 10 µM (Alpha2B; [5]): 8.29% | inhibition at 10 µM (Alpha1D; [1]): -13.7 ± 16.7% | inhibition at 10 µM (Alpha1D; [2]): 6.91% | inhibition at 10 µM (Alpha1D; [3]): -32.8% | inhibition at 10 µM (Alpha1D; [4]): -9.43% | inhibition at 10 µM (Alpha1D; [5]): -19.4% | inhibition at 10 µM (M1; [1]): 0.29 ± 11.9% | inhibition at 10 µM (M1; [2]): 17.4% | inhibition at 10 µM (M1; [3]): -8.79% | inhibition at 10 µM (M1; [4]): -6.38% | inhibition at 10 µM (M1; [5]): -1.13% | inhibition at 10 µM (MOR; [1]): -2.04 ± 10.4% | inhibition at 10 µM (MOR; [2]): 5.06% | inhibition at 10 µM (MOR; [3]): -11.3% | inhibition at 10 µM (MOR; [4]): 8.74% | inhibition at 10 µM (MOR; [5]): -10.6% | inhibition at 10 µM (M4; [1]): -3.86 ± 14.8% | inhibition at 10 µM (M4; [2]): 0.88% | inhibition at 10 µM (M4; [3]): -23.9% | inhibition at 10 µM (M4; [4]): -3.92% | inhibition at 10 µM (M4; [5]): 11.5% | Mean±SD % inhibition (Sigma 2; quadruplicate): 27.22 ±10.59% | % Inhibition 1 (Sigma 2; replicate 1): 42.39% | % Inhibition 2 (Sigma 2; replicate 2): 19.45% | % Inhibition 3 (Sigma 2; replicate 3): 26.56% | % Inhibition 4 (Sigma 2; replicate 4): 20.46%
